# Earlier results, collected in patent US20220273570A1, “Self-Microemulsifying Multi-Deliverable Systems” (Quicksilver Scientific, Inc., priority 2019, published 2022).
# Like-named read-outs stand apart in the source and are kept apart here.
# Key:
# [1] = test system: human hepatoma cell line (HepG2)
# [2] = up to
# [3] = rats, oral
# [4] = oral; extensively metabolized into glucuronide conjugate
structure (smiles),measurement,setting,value
COc1cc(/C=C/C(=O)CC(=O)/C=C/c2ccc(O[C@@H]3O[C@H](C(=O)O)[C@@H](O)[C@H](O)[C@H]3O)c(OC)c2)ccc1O [curcumin-glucuronide],effects on gene expression compared with free curcumin,[1],weaker
C[C@]12CC[C@H](O)CC1=CC[C@@H]1[C@@H]2CC[C@]2(C)C(=O)CC[C@@H]12 [DHEA],solubility in MCT oil,[2]; MCT oil,approximately 10 mg/mL
same,solubility in ethanol,[2]; ethanol,approximately 150 mg/mL
COc1cc(/C=C/C(=O)CC(=O)/C=C/c2ccc(O)c(OC)c2)ccc1O [curcumin],bioavailability of orally administered solid curcumin powder,[3],1%
"Oc1ccc(/C=C/c2cc(O)cc(O)c2)cc1 [resveratrol, 3,5,4′-trihydroxy-trans-stilbene]",bioavailability,[4],about 0.5%
O=c1c(O)c(-c2ccc(O)c(O)c2)oc2cc(O)cc(O)c12 [quercetin],elimination half-life,after oral ingestion of quercetin containing foods or supplements,1 to 2 h
same,bioavailability,"humans, low and highly variable",0-50%
